From the NIST ThermoML archive (doi:10.1016/j.jct.2009.04.004)

Assay: molar heat capacity at constant pressure
Settings: 101.33 kPa, Crystal, Small sample (50 mg) DSC

[Na+].[O]=[Re](=[O])(=[O])[O-] [sodium perrhenate]
Settings | molar heat capacity at constant pressure [J/K/mol]
298.15 K | 118.8
323.15 K | 122.2
348.15 K | 125.5
373.15 K | 128.9
398.15 K | 131.8
423.15 K | 135.1
448.15 K | 137.2
473.15 K | 139.7
498.15 K | 142.3
523.15 K | 144.8
548.15 K | 146.9
573.15 K | 148.1
598.15 K | 149.4
